Test results taken from patent publication US20220213198A1, “METHOD OF TREATMENT” (The Council of the Queensland Institute of Medical Research, priority 2019, published 2022).

Test system: LWT1 melanoma cells
Assay: LWT1 experimental lung metastasis model
Format: in vivo, mouse
Settings: day 14
Method: FIG. 2. Up-regulation of MR1 on B16F10 cells increases lung metastases that is dependent on MAIT cells. (A) The schematic and timeline of expanding MAIT cells from splenocytes derived from C57BL/6 WT mice with IL-2 and 5-OP-RU, for sorting and adoptive transfer into tumor-bearing mice. (B, C) Groups of WT or MR1^−/− or Rag2cγ^−/− mice (n=5-6/group) were injected i.v. with (B) 1×10^5 or (C) 1×10^4 B16F10 melanoma cells. In some groups, sorted MAIT or T conventional cells (cT) (non-MAIT αβ^+ T cells) (2×10^5 cells/mouse) from C57BL/6 (B) WT or (C) TCRδ^−/− mice were i.v. injected into the indicated groups of mice one day before tumor inoculation. (C) One group of mice received i.v injection of media alone as a control. (B, C) On day 14 relative to tumor cell inoculation, lungs were harvested and the metastatic burden was quantified by counting colonies on the lung surface. Data presented as mean±SEM. (D) B16F10 or LWT1 melanoma cells were stimulated in vitro with DMSO or 5-OP-RU (100 nM) for 4 hours before cell surface MR1 expression was determined by flow cytometry. […] Fourteen days later relative to tumor cell inoculation, lungs were harvested and the metastatic burden was quantified by counting colonies on the lung surface. […] Significant differences between groups as indicated by crossbars were determined using a one-way ANOVA followed by Tukey's post-hoc test (B, E, F), *p<0.05, **p<0.01, ****p<0.0001
FIG. 6. […] (A-D) On day 14, lungs were harvested and the metastatic burden was quantified by counting colonies on the lung surface. […] (E, F), Mice were monitored for tumor growth (calculated by the product of 2 perpendicular axes). […] Significant differences between groups as indicated by crossbars were determined by a one-way ANOVA followed by Tukey's post-hoc test (A, B) or a Mann-Whitney test (C, […]), *p<0.05, **p<0.01, ***p<0.001.
The indicated numbers of B16F10 and LWT1 cells were injected intravenously (i.v.) into the tail vein of WT or gene-targeted mice. […] Lungs were harvested on day 14, and surface tumor nodules were counted under a dissection microscope. […]

Row | Molecule | number of lung metastases (MR1-/- mice i.v. injected with pre-treated LWT1, vs DMSO-treated) | number of lung metastases (WT mice i.v. injected with LWT1 pre-treated 100 nM 4 h, vs DMSO-treated) | LWT1 lung metastases (250 μg/mouse i.p. days -1, 0 and 3, vs cIg)
1 | CC(=O)C=Nc1c(NC[C@H](O)[C@H](O)[C@H](O)CO)[nH]c(=O)[nH]c1=O [5-OP-RU] | this increase was lost | significantly increased | –
2 | 8F2.F9: anti-MR1 blocking antibody from hybridoma clone 8F2.F9, IgG1 isotype; heavy chain SEQ ID NO: 14, light chain SEQ ID NO: 18 (antibody, listed as Mus musculus, V domains shown) VH: MKFSWVIFFLMAVVTGVNSEVQLQQSVAELVRPGASVKLSCTASGFNIKNTYMHWVKKRPELGLEWIGRIDPANGNTNFAPKFQGKATITADTSSNTAYLQLSSLTSEDTAIYYCPRGSGNYYFDYWGQGTTLTVSS VL: MSSAQFLGLLLLCFQGTRCDIQMTQTTSSLSASLGDRVTISCRASQDISNYLNWYQQKPDGPVKLLIYYTSRLHSGVPSRFSGSGSGTDYSLTINNLAQEDIATYFCQQGNTLPYTFGGGTKLEIK | – | – | significantly reduced
